In ChEMBL document CHEMBL1201862, “PubChem BioAssay data set” (2004):
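Growth conditions: 96-well plates. Treatment: test compound, 48 hours, 5 concentrations. Analysis: linear interpolation between bracketing concentrations; unreached endpoints set to highest concentration. GI50 = concentration required for 50% inhibition of growth.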 Calls of active or inactive are those of the source. Cut-off read from the data, not from the text of the source: active = GI50 up to about 1.1 µM and inactive = higher.

What was measured:
Experiment in all cases: NCI anticancer screen, dose series, 48 h
[1] = tested on: 786-0
[2] = tested on: A498
[3] = tested on: A549
[4] = tested on: ACHN
[5] = tested on: BT-549
[6] = tested on: CAKI-1
[7] = tested on: CCRF-CEM
[8] = tested on: COLO 205
[9] = tested on: DU-145
[10] = tested on: EKVX
[11] = tested on: HCC 2998
[12] = tested on: HCT-116
[13] = tested on: HCT-15
[14] = tested on: HL-60
[15] = tested on: HOP-62
[16] = tested on: HT-29
[17] = tested on: Hs-578T
[18] = tested on: IGROV-1
[19] = tested on: K562
[20] = tested on: KM12
[21] = tested on: LOX IMVI
[22] = tested on: M14
[23] = tested on: MCF7
[24] = tested on: MDA-MB-231
[25] = tested on: MDA-MB-435
[26] = tested on: MDA-N
[27] = tested on: MOLT-4
[28] = tested on: Malme-3M
[29] = tested on: NCI-H226
[30] = tested on: NCI-H23
[31] = tested on: NCI-H460
[32] = tested on: NCI-H522
[33] = tested on: NCI/ADR-RES
[34] = tested on: OVCAR-3
[35] = tested on: OVCAR-4
[36] = tested on: OVCAR-5
[37] = tested on: OVCAR-8
[38] = tested on: PC-3
[39] = tested on: RPMI-8226
[40] = tested on: SF-295
[41] = tested on: SF-539
[42] = tested on: SK-MEL-28
[43] = tested on: SK-MEL-2
[44] = tested on: SK-MEL-5
[45] = tested on: SK-OV-3
[46] = tested on: SN12C
[47] = tested on: SNB-19
[48] = tested on: SR
[49] = tested on: SW-620
[50] = tested on: T47D
[51] = tested on: TK-10
[52] = tested on: U-251
[53] = tested on: UACC-257
[54] = tested on: UACC-62
[55] = tested on: UO-31
[56] = tested on: HOP-92
[57] = tested on: SF-268
[58] = tested on: SNB-75
[59] = tested on: RXF 393

COc1cc(-c2oc3c(OC)c(O)c(OC)c(O)c3c(=O)c2OC)ccc1O
GI50 [1]: 38.1 µM (inactive)
GI50 [2]: 37.3 µM (inactive)
GI50 [3]: 65.3 µM (inactive)
GI50 [4]: 41.9 µM (inactive)
GI50 [5]: 37.9 µM (inactive)
GI50 [6]: 24.8 µM (inactive)
GI50 [7]: 35.2 µM (inactive)
GI50 [8]: > 100 µM (inactive)
GI50 [9]: 32 µM (inactive)
GI50 [10]: 78.7 µM (inactive)
GI50 [11]: 45.3 µM (inactive)
GI50 [12]: 50.6 µM (inactive)
GI50 [13]: 28.8 µM
GI50 [14]: 33.5 µM (inactive)
GI50 [15]: 23.1 µM (inactive)
GI50 [16]: 68.1 µM (inactive)
GI50 [17]: 14.9 µM (inactive)
GI50 [18]: 25.4 µM (inactive)
GI50 [19]: 58.6 µM (inactive)
GI50 [20]: > 100 µM (inactive)
GI50 [21]: 26.9 µM (inactive)
GI50 [22]: 10.4 µM (inactive)
GI50 [23]: 28.9 µM (inactive)
GI50 [24]: 44.2 µM (inactive)
GI50 [25]: 17.8 µM (inactive)
GI50 [26]: 48.1 µM (inactive)
GI50 [27]: 95.5 µM (inactive)
GI50 [28]: 34.7 µM (inactive)
GI50 [29]: 34.9 µM (inactive)
GI50 [30]: 52.4 µM (inactive)
GI50 [31]: 46.1 µM (inactive)
GI50 [32]: 29.1 µM (inactive)
GI50 [33]: 50.8 µM (inactive)
GI50 [34]: 24.3 µM (inactive)
GI50 [35]: 74.1 µM (inactive)
GI50 [36]: > 100 µM (inactive)
GI50 [37]: 68.5 µM (inactive)
GI50 [38]: 48.9 µM (inactive)
GI50 [39]: 26.1 µM (inactive)
GI50 [40]: 44.9 µM (inactive)
GI50 [41]: 40.4 µM (inactive)
GI50 [42]: 56.8 µM (inactive)
GI50 [43]: 24.8 µM (inactive)
GI50 [44]: 29.8 µM (inactive)
GI50 [45]: 17.9 µM (inactive)
GI50 [46]: 59.8 µM (inactive)
GI50 [47]: > 100 µM (inactive)
GI50 [48]: 41.5 µM (inactive)
GI50 [49]: 94.4 µM (inactive)
GI50 [50]: 20.3 µM (inactive)
GI50 [51]: 31.3 µM (inactive)
GI50 [52]: 26.4 µM (inactive)
GI50 [53]: 60.5 µM (inactive)
GI50 [54]: 20.7 µM (inactive)
GI50 [55]: 31.6 µM (inactive)

COc1cc2c3cc1Oc1c(OC)c(OC)cc4c1C(Cc1ccc(O)c(c1)Oc1ccc(cc1)CC3N(C)CC2)N(C)CC4 (stereo unspecified)
GI50 [1]: > 100 µM (inactive)
GI50 [2]: 23.7 µM (inactive)
GI50 [3]: 26.3 µM (inactive)
GI50 [4]: 17.3 µM (inactive)
GI50 [5]: 23.1 µM (inactive)
GI50 [6]: 17.9 µM (inactive)
GI50 [7]: 17.2 µM (inactive)
GI50 [8]: 32 µM (inactive)
GI50 [9]: 37.8 µM (inactive)
GI50 [10]: 27.9 µM (inactive)
GI50 [11]: 15.8 µM (inactive)
GI50 [12]: 45.3 µM (inactive)
GI50 [13]: 16.1 µM
GI50 [14]: 28.3 µM (inactive)
GI50 [15]: 64.6 µM (inactive)
GI50 [56]: 26.2 µM (inactive)
GI50 [16]: 31.3 µM (inactive)
GI50 [17]: 24.2 µM (inactive)
GI50 [18]: 39.8 µM (inactive)
GI50 [19]: 7.78 µM (inactive)
GI50 [20]: 28.1 µM (inactive)
GI50 [21]: 58.7 µM (inactive)
GI50 [22]: 33.7 µM (inactive)
GI50 [23]: 45.9 µM (inactive)
GI50 [24]: 35.6 µM (inactive)
GI50 [25]: > 10 µM (inactive)
GI50 [26]: 21.7 µM (inactive)
GI50 [27]: 44.4 µM (inactive)
GI50 [28]: 59.2 µM (inactive)
GI50 [29]: 49.9 µM (inactive)
GI50 [30]: 14.8 µM (inactive)
GI50 [31]: 15.7 µM (inactive)
GI50 [32]: 31.5 µM (inactive)
GI50 [33]: 31.5 µM (inactive)
GI50 [35]: 29 µM (inactive)
GI50 [36]: 39.7 µM (inactive)
GI50 [37]: 33.6 µM (inactive)
GI50 [38]: 31.3 µM (inactive)
GI50 [57]: 24.3 µM (inactive)
GI50 [40]: 21.5 µM (inactive)
GI50 [41]: 24.8 µM (inactive)
GI50 [42]: 64.4 µM (inactive)
GI50 [43]: 28.8 µM (inactive)
GI50 [44]: 20 µM (inactive)
GI50 [45]: 29.6 µM (inactive)
GI50 [46]: 19.1 µM (inactive)
GI50 [47]: 20.2 µM (inactive)
GI50 [58]: 23.3 µM (inactive)
GI50 [48]: 2.09 µM (inactive)
GI50 [49]: 69.8 µM (inactive)
GI50 [50]: 27.8 µM (inactive)
GI50 [51]: 42.8 µM (inactive)
GI50 [52]: 21.4 µM (inactive)
GI50 [53]: 34.1 µM (inactive)
GI50 [54]: 44.6 µM (inactive)
GI50 [55]: 16.7 µM (inactive)

CCCCC/C=C1\CC(CO)(COC(=O)CC(C(C)C)C(C)C)OC1=O (stereo unspecified)
GI50 [1]: 12.1 µM (inactive)
GI50 [2]: 15.8 µM (inactive)
GI50 [3]: 8.89 µM (inactive)
GI50 [4]: 13 µM (inactive)
GI50 [5]: 16.4 µM (inactive)
GI50 [6]: 9.42 µM (inactive)
GI50 [7]: 11.8 µM (inactive)
GI50 [8]: 3.04 µM (inactive)
GI50 [9]: 15.6 µM (inactive)
GI50 [10]: 13.7 µM (inactive)
GI50 [11]: 15.4 µM (inactive)
GI50 [12]: 18.7 µM (inactive)
GI50 [13]: 19.9 µM
GI50 [15]: 6 µM (inactive)
GI50 [56]: 3.66 µM (inactive)
GI50 [16]: 19.9 µM (inactive)
GI50 [17]: 4.62 µM (inactive)
GI50 [18]: 17.4 µM (inactive)
GI50 [19]: 6.84 µM (inactive)
GI50 [20]: 11.4 µM (inactive)
GI50 [22]: 14.6 µM (inactive)
GI50 [23]: 21.6 µM (inactive)
GI50 [24]: 17.9 µM (inactive)
GI50 [25]: 8.59 µM (inactive)
GI50 [26]: 8.15 µM (inactive)
GI50 [27]: 15.2 µM (inactive)
GI50 [28]: 15.3 µM (inactive)
GI50 [29]: 13.7 µM (inactive)
GI50 [30]: 17.5 µM (inactive)
GI50 [31]: 16.4 µM (inactive)
GI50 [32]: 17.8 µM (inactive)
GI50 [33]: 20.3 µM (inactive)
GI50 [34]: 17.5 µM (inactive)
GI50 [35]: 30 µM (inactive)
GI50 [36]: 12.7 µM (inactive)
GI50 [37]: 18.2 µM (inactive)
GI50 [38]: 10.5 µM (inactive)
GI50 [59]: 17.9 µM (inactive)
GI50 [57]: 17.9 µM (inactive)
GI50 [40]: 5.52 µM (inactive)
GI50 [42]: 16.1 µM (inactive)
GI50 [43]: 20.3 µM (inactive)
GI50 [44]: 11 µM (inactive)
GI50 [45]: 19.1 µM (inactive)
GI50 [46]: 16.1 µM (inactive)
GI50 [47]: 15 µM (inactive)
GI50 [58]: 12.1 µM (inactive)
GI50 [48]: 28.6 µM (inactive)
GI50 [49]: 29.3 µM (inactive)
GI50 [50]: 23.1 µM (inactive)
GI50 [51]: 14.2 µM (inactive)
GI50 [52]: 14.5 µM (inactive)
GI50 [53]: 21.1 µM (inactive)
GI50 [54]: 19.4 µM (inactive)
GI50 [55]: 13.7 µM (inactive)
